Literature values, collected in patent US20130102635A1, “Methods for Treating Disorders Associated with Hyperlipidemia in a Mammal” (priority 2005, published 2013).
“Also recorded” adds a separate entry of the source. Where two headings read alike, the source gives them in different places.

Key:
[1] = animal model for homozygous FH, for example at 25 mg/day
[2] = clinical studies, 80 mg/day or greater

Compound: O=C(NC1CCN(CCCCC2(C(=O)NCC(F)(F)F)c3ccccc3-c3ccccc32)CC1)c1ccccc1-c1ccc(C(F)(F)F)cc1 [BMS-201038, N-(2,2,2-Trifluorethyl)-9-[4-[4-[[[4′-(trifluoromethyl)[1,1′biphenyl]-2-Yl]carbonyl]amino]-1-piperidinyl]butyl] 9H-fluorene-9-carboxamide]
- reduction of plasma cholesterol levels [1]: effectively reduced plasma cholesterol levels in a dose dependent manner
- adverse events (patients, 25 mg/day BMS-201038): gastrointestinal disturbances, abnormalities in liver function, and hepatic steatosis; also recorded: gastrointestinal disorders, abnormalities in liver function and/or hepatic steatosis

Compound: Cc1cc(C)c2c3ccccc3n(Cc3ccc([C@@H](C(=O)N[C@H](CO)c4ccccc4)C4CCCC4)cc3)c2n1 [implitapide, (2S)-2-cyclopentyl-2-[4-[(2,4-dimethyl-9H-pyrido[2,3-b]indol-9-yl)methyl]phenyl]-N-[(1S)-2-hydroxy-1-phenylethyl]ethanamide]
- adverse events (clinical studies, implitapide 80 mg/day or greater): gastrointestinal disturbances, abnormalities in liver function, and hepatic steatosis
- adverse events (implitapide 80 mg/day and 160 mg/day): gastrointestinal disorders, abnormalities in liver function and/or hepatic steatosis
- therapeutic effectiveness [2]: therapeutically effective
